# Measurements: patent publication US20230183243A1, “HETEROARYL DERIVATIVES AND PHARMACEUTICAL COMPOSITION COMPRISING SAME AS ACTIVE INGREDIENT” (VORONOI INC., priority 2019, published 2023)
# What was measured:
# MAP3K2 = target: T1, MAP3K2 (Homo sapiens, UniProt Q9Y2U5); assay: ScanMAX Kinase panel (DiscoverX); assay type: binding; conditions: read-out: % Cont @ 1 μM
# T1 construct: purchased DiscoverX Corp. ScanMAX Kinase panel
# Method: (§1) Further, to evaluate the inhibitory activity of the compound according to the present invention against more enzymes, an experiment was performed as follows. Specifically, the enzyme (kinase) selectivity of the compound of Example 64 selected from the Example compounds of the present invention was measured by commissioning DiscoverX Corp., and an experiment was performed using a panel for ScanMAX™ Kinase analysis. In this case, the concentration of a drug treated with the enzyme was set at 1 μM in DMSO, and the percent control (% control) were defined in the same manner as in the following Expression 1.
# (§2) (Example compound−Positive control)/(Negative control−Positive control)×100 [Expression 1]
# (§3) Wherein the positive control represents a compound having a percent control of 0%, and the negative control represents a compound having a percent control of 100% in DMSO. For the enzyme selectivity of the present invention, the compound was also judged to have activity against the corresponding enzyme when the percent control for each of the enzymes was <35% (i.e., less than 35%).
# ULK3 = target: T2, ULK3 (Homo sapiens, UniProt Q6PHR2); assay: ScanMAX Kinase panel (DiscoverX); assay type: binding
# T2 construct: purchased DiscoverX Corp. ScanMAX Kinase panel
# Method: as §1, §2, §3
# [1] = target: T3, JAK2(JH1domain-catalytic) (Homo sapiens, UniProt O60674); assay: ScanMAX Kinase panel (DiscoverX); assay type: binding
# T3 construct: JAK2(JH1domain-; purchased DiscoverX Corp. (ScanMAX Kinase panel, commissioned)
# Method: as §1, §2, §3
# KIT(V559D, V654A) = target: T4, KIT(V559D, V654A) (Homo sapiens, UniProt P10721, V559D/V654A); assay: ScanMAX Kinase panel (DiscoverX); assay type: binding; conditions: read-out: % Cont @ 1 μM
# T4 construct: purchased DiscoverX Corp. ScanMAX Kinase panel
# Method: as §1, §2, §3
# SNARK = target: T5, SNARK (Homo sapiens, UniProt Q9H093); assay: ScanMAX Kinase panel (DiscoverX); assay type: binding
# T5 construct: purchased DiscoverX Corp. (ScanMAX Kinase panel, commissioned)
# Method: as §1, §2, §3
# JNK2 = target: T6, JNK2 (Homo sapiens, UniProt P45984); assay: JNK enzyme activity, Kinase HotSpot service (Reaction Biology Corporation); assay type: biochemical; conditions: ATP concentration of 10 μM
# T6 construct: purchased DiscoverX Corp. (ScanMAX Kinase panel, commissioned)
# Method: (§4) IC50 values of the compound of Example 7 for the enzymes were measured using the Kinase HotSpot service (Reaction Biology Corporation), and a test was performed under the same conditions at an ATP concentration of 10 μM. The concentration of the compound was measured at a 3-fold concentration gradient from the peak concentration of 10 mM.
# (§5) All the experimental methods were performed as provided in the Kinase HotSpot Customer Protocol (http://www.reactionbiology.com//Kinase_Assay_Protocol).
# JNK3 = target: T7, JNK3 (Homo sapiens, UniProt P53779); assay: as above; assay type: biochemical; conditions: ATP concentration of 10 μM
# T7 construct: purchased DiscoverX Corp. (ScanMAX Kinase panel, commissioned)
# Method: as §4, §5
# JNK1 = target: T8, JNK1 (Homo sapiens, UniProt P45983); assay: as above; assay type: biochemical; conditions: ATP concentration of 10 μM
# T8 construct: purchased DiscoverX Corp. (ScanMAX Kinase panel, commissioned)
# Method: as §4, §5
# MEK3 = target: T9, MEK3 (Homo sapiens, UniProt P46734); assay: ScanMAX Kinase panel (DiscoverX); assay type: binding; conditions: read-out: % Cont @ 1 μM
# T9 construct: purchased DiscoverX Corp. (ScanMAX Kinase panel, commissioned)
# Method: (§6) Specifically, the enzyme (kinase) selectivity of the compound of Example 7 selected from the Example compounds of the present invention was measured by commissioning DiscoverX Corp., and an experiment was performed using a panel for ScanMAX™ Kinase analysis.
# (§7) In this case, the concentration of a drug treated with the enzyme was set at 1 μM in DMSO, and percent control (% control) was defined in the same manner as in the following Expression 1.
# as §2
# as §3, with “<30%” for “<35%”, “30%).” for “35%).”
# FLT3(D835V) = target: T10, FLT3(D835V) (Homo sapiens, UniProt P36888, D835V); assay: ScanMAX Kinase panel (DiscoverX); assay type: binding; conditions: read-out: % Cont @ 1 μM
# T10 construct: purchased DiscoverX Corp. (ScanMAX Kinase panel, commissioned)
# Method: as §6, §7, §2
# as §3, with “<30%” for “<35%”, “30%).” for “35%).”
# T4 sequence (P10721 26-976 V559D/V654A): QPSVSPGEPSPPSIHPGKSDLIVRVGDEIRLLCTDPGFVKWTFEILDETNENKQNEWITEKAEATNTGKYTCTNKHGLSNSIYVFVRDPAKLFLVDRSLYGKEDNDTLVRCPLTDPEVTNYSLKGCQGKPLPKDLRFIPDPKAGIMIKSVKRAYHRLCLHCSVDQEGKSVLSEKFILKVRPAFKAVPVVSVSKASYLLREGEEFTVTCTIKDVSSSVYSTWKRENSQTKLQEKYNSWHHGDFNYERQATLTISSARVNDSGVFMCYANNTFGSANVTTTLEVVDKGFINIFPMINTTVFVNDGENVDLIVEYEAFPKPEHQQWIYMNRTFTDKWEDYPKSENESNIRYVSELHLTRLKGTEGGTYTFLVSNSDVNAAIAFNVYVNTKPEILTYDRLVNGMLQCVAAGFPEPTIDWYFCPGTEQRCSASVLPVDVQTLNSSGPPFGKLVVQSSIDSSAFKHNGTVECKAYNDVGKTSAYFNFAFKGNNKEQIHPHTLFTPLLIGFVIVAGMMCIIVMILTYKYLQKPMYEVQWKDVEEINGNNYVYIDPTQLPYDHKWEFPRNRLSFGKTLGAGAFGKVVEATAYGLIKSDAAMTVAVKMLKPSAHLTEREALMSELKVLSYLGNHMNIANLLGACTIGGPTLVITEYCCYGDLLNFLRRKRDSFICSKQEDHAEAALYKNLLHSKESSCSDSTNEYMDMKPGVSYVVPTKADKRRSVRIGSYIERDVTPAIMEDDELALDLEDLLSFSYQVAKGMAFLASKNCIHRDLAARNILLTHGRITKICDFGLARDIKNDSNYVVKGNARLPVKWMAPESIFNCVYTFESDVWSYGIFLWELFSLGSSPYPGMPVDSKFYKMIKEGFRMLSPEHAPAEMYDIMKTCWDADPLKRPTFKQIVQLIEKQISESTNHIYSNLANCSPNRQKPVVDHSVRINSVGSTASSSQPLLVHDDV
# T2 sequence (Q6PHR2 whole entry): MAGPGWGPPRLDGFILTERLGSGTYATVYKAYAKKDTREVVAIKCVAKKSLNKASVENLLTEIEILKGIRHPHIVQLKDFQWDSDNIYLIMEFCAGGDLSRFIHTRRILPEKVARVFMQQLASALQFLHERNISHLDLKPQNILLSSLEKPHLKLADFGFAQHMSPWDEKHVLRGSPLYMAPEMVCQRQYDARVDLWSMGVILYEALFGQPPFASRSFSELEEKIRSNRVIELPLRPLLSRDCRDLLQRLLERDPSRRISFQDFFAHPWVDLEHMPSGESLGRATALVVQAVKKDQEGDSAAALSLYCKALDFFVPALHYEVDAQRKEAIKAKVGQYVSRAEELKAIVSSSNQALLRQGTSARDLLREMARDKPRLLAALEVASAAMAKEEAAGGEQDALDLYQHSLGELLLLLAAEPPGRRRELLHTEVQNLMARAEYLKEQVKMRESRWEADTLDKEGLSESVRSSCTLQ
# T6 sequence (P45984 whole entry): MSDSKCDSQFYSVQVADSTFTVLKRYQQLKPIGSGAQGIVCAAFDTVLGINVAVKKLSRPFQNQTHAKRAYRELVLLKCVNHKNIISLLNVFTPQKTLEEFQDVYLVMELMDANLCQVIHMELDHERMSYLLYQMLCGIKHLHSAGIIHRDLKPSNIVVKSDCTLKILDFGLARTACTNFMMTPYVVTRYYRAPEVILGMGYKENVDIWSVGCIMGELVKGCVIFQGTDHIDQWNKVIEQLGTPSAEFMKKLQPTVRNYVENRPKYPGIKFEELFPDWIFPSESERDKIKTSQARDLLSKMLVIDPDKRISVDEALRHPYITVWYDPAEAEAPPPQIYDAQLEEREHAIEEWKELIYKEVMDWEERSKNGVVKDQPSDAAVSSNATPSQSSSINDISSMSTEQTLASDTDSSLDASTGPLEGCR
# T7 sequence (P53779 whole entry): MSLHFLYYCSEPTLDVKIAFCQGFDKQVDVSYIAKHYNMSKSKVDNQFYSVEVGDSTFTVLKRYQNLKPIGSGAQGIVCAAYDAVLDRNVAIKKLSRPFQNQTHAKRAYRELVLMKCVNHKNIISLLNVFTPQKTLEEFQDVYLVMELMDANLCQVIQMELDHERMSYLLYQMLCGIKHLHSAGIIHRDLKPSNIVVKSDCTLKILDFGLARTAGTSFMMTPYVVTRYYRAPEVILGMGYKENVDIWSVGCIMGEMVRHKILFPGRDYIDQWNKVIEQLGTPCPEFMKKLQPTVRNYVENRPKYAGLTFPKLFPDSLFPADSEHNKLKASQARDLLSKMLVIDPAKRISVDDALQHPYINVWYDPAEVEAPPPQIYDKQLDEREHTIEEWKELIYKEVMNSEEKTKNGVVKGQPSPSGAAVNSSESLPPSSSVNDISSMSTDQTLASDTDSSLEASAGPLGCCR
# T1 sequence (Q9Y2U5 whole entry): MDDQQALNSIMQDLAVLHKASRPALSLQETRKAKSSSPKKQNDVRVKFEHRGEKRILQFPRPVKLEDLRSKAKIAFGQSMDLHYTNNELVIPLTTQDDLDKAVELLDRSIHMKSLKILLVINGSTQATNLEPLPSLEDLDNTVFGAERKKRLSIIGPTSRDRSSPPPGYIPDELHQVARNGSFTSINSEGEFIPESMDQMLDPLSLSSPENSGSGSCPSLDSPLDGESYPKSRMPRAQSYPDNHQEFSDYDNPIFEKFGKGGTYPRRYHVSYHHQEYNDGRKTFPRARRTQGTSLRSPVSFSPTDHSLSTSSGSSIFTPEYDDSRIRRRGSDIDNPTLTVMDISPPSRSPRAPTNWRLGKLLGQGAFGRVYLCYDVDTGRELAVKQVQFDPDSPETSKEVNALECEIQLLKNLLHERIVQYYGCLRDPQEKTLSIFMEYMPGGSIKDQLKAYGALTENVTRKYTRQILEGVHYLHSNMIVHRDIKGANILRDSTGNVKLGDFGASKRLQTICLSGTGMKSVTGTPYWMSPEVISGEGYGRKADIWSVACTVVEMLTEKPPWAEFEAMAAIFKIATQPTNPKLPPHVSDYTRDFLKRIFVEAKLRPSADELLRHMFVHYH
# T8 sequence (P45983 whole entry): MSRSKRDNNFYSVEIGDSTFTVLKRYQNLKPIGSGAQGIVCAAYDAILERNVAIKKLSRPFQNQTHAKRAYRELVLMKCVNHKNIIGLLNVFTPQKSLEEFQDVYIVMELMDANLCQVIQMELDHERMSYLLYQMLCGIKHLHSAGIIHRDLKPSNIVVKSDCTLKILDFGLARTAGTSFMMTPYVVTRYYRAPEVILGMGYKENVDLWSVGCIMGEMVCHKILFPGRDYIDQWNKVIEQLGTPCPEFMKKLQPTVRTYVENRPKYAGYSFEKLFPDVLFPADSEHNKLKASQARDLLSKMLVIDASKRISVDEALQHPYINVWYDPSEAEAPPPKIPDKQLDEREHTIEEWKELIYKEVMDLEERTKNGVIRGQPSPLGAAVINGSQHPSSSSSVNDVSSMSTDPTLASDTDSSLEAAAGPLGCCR
# T3 sequence (O60674 849-1124 limits assumed): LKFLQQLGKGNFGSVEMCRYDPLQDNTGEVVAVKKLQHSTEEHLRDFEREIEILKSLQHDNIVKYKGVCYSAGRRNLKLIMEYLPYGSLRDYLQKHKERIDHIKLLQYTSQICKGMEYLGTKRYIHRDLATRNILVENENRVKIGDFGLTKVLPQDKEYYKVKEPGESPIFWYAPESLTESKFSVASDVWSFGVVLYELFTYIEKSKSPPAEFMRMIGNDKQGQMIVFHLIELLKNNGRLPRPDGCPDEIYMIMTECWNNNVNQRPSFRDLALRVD
# T5 sequence (Q9H093 whole entry): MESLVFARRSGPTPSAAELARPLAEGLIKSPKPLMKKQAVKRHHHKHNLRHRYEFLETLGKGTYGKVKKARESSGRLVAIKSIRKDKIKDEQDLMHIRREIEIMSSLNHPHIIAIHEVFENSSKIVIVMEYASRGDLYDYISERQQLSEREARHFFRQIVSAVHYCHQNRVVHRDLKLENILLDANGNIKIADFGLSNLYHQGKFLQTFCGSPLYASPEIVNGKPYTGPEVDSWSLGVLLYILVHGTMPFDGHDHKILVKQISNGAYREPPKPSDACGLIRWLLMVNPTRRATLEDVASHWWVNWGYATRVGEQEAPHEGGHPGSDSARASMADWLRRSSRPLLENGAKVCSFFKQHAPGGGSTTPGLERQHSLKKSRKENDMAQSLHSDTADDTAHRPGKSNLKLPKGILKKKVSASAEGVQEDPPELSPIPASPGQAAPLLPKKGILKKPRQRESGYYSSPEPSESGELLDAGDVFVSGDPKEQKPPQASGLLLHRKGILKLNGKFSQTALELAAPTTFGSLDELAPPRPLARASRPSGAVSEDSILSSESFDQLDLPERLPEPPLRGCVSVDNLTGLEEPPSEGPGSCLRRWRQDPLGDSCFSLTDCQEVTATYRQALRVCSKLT
# T9 sequence (P46734 whole entry): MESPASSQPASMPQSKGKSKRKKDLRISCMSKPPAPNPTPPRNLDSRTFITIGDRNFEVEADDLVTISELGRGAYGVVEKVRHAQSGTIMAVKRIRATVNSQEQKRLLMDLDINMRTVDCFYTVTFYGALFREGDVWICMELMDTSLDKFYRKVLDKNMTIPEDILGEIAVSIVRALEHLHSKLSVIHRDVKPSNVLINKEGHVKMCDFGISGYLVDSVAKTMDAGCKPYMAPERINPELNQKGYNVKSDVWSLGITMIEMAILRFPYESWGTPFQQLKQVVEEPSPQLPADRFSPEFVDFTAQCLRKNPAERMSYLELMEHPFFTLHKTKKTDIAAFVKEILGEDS
remaining binding at 1 µM (MAP3K2),% Cont @ 1 μM (ULK3),% Cont @ 1 μM [1],"remaining binding at 1 µM (KIT(V559D, V654A))",% Cont @ 1 μM (SNARK),IC50 (JNK2),IC50 (JNK3),IC50 (JNK1),remaining binding at 1 µM (MEK3),remaining binding at 1 µM (FLT3(D835V)),Compound
13%,2.6%,0%,14%,0%,–,–,–,–,–,"COc1cc(N2CCCC2=O)ccc1Nc1cc(NC2CCCCC2)c2c(C#N)c[nH]c2n1 [Example 64, 4-(cyclohexylamino)-6-((2-methoxy-4-(2-oxopyrrolidin-1-yl)phenyl)amino)-1H-pyrrolo[2,3-b] pyridine-3-carbonitrile]"
–,–,–,–,–,< 100 nM,< 100 nM,< 100 nM,18%,5.6%,"COc1cc(-c2ccnn2C)ccc1Nc1nc(NC2CCCCC2)c2c(C#N)c[nH]c2n1 [Example 7, 4-(cyclohexylamino)-2-((2-methoxy-4-(1-methyl-1H-pyrazol-5-yl)phenyl)amino)-7H-pyrrolo[2,3-d] pyrimidine-5-carbonitrile]"
